This note sets out measurements from patent US20160297761A1, “NOVEL INHIBITORS OF GLUTAMINASE” (RHIZEN PHARMACEUTICALS SA, priority 2014, published 2016).

Where two headings read alike, the source gives them in different places.

Assay [1] has as its target T1, L-glutaminase present in mice brain homogenate (Glutaminase(Brain)) (Mus musculus, UniProt D3Z7P3).
T1 sequence (D3Z7P3 55-674): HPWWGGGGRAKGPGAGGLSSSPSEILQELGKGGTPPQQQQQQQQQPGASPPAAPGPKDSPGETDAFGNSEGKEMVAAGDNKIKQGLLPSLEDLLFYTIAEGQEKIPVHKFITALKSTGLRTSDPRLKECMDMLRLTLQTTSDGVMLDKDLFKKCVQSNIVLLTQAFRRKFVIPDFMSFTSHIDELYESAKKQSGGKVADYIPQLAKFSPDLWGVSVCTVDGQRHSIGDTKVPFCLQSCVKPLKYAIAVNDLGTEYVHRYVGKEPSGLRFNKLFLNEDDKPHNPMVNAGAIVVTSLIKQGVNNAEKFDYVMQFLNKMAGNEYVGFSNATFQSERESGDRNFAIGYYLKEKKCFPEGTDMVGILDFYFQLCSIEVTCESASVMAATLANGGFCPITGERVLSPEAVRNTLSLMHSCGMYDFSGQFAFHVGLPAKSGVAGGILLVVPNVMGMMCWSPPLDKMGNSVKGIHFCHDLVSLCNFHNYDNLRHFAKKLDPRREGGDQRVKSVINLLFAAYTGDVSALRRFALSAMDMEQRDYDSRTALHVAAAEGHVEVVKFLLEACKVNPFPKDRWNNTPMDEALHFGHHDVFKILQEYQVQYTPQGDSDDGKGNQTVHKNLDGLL
The assay can be described thus: Glutaminase enzyme activity using glutaminase enzyme from mice brain/kidney homogenate (Nessler's reagent, ammonia). Type of assay: biochemical. The conditions noted are these: for inhibition at 0.1 µM: read-out: Glutaminase(Brain) activity % inhibition 0.1 μM; for inhibition at 1 µM: read-out: Glutaminase(Brain) activity % inhibition @1 μM. The procedure: Assay 3: Determination of Glutaminase Enzyme Activity Using Glutaminase
Enzyme from Mice Brain/Kidney
Step 1: Preparation of Tissue Homogenates: Male Balb/c mice were administered 0.28 M ammonium chloride in drinking water for 7 days. The animals were sacrificed and brain/kidney organs collected on dry ice. […] The tissue was homogenized and supernatants were stored at −80° C. until the enzyme assay was performed.
Aim: Compounds were assessed for their ability to inhibit the enzymatic activity of L-glutaminase present in mice brain/kidney homogenate.
Protocol: The assay was performed using a colorimetric method using Nessler's Reagent by quantifying the amount of ammonia formed as a by product during the enzymatic conversion of L-glutamine to glutamate. In the routine assay, 16 μl of tissue homogenate is added to 33 μl of Tris-Hcl phosphate buffer (pH 8) along with 1 μl of DMSO/test compound containing the desired final concentration and vortexed briefly. 50 μl of 20 mM L-glutamine Tris buffer is added to start the reaction and incubated for 15 minutes at 37° C. The ammonia formed is detected by adding 20 μl of reaction mixture to cold water in a 96 well plate followed by 20 μl of Nessler's reagent. The colour developed is measured at 450 nm. Data Analysis: Activity of the test compound is reported as % inhibition and the data is analyzed using Graphpad Prism (Graphpad software; San Diego Calif.) for IC50 determination.

In another assay the test system is cancer cell lines. In words: In vitro cell proliferation assay in cancer cell lines (MTT dye reduction, 72 h). Type of assay: cell-based. The note with it: cancer cell line not named, 10% FBS media. Here is the method: Assay 4: In Vitro Cell Proliferation Assay in Cancer Cell Lines
Growth inhibition assays were carried out using 10% FBS supplemented media. Cells were seeded at a concentration of 5000-20,000 cells/well in a 96-well plate. Test compounds at a concentration range from 0.01 to 10000 nM were added after 24 hours. Growth was assessed using the 3-[4,5-dimethylthiazol-2-yl]-2,5-diphenyltetrazolium bromide (MIT) dye reduction test at 0 h (prior to the addition of the test compound) and 72 hours after the addition of test compound. Absorbance was read on a Fluostar Optima (BMG Labtech, Germany) at a wave length of 450 nm. Data were analysed using GraphPad Prism and percent inhibition due to the test compound compared to the control was calculated accordingly.

`CS(=O)(=O)Nc1cccc(CC(=O)Nc2nnc(CCCCc3ccc(NC(=O)Cc4cccc(OC(F)(F)F)c4)nc3)s2)c1` [Example-30, 2-(3-(Methylsulfonamido)phenyl)-N-(5-(4-(6-(2-(3-(trifluoromethoxy)phenyl)acetamido)pyridin-3-yl)butyl)-1,3,4-thiadiazol-2-yl)acetamide]: the inhibition (in general, the drop in the measured response relative to a control, in per cent) at 0.1 µM in assay [1] (0.1 μM, mice brain homogenate) fell in the range of 50 to 75%. The inhibition at 1 µM in assay [1] (1 μM, mice brain homogenate) fell in the range of 75 to 100%. Besides, in the assay with cancer cell lines, the GI50 (commonly the concentration giving 50% growth inhibition) is 1 to 5 µM.

Turning to `O=C(Cc1ccccn1)Nc1ccc(CCCCc2nnc(NC(=O)Cc3cccc(OC(F)(F)F)c3)s2)c(F)n1` [Example-32, N-(6-fluoro-5-(4-(5-(2-(3-(trifluoromethoxy)phenyl)acetamido)-1,3,4-thiadiazol-2-yl)butyl)pyridin-2-yl)-2-(pyridin-2-yl)acetamide], the inhibition at 0.1 µM in assay [1] (0.1 μM, mice brain homogenate) was under 25%. In assay [1] (1 μM, mice brain homogenate), the inhibition at 1 µM lay within 75 to 100%. Also, in the assay on cancer cell lines, the GI50 was 0.4 to 1 µM.

In the case of `O=C(Cc1cccnc1)Nc1ccc(CCCCc2nnc(NC(=O)Cc3cccc(Cl)c3)s2)cn1` [Example-18, 2-(3-Chlorophenyl)-N-(5-(4-(6-(2-(pyridin-3-yl)acetamido)pyridin-3-yl)butyl)-1,3,4-thiadiazol-2-yl)acetamide], the inhibition at 0.1 µM in assay [1] (0.1 μM, mice brain homogenate) lay within 50 to 75%. For the same compound, the inhibition at 1 µM in assay [1] (1 μM, mice brain homogenate) fell in the range of 75 to 100%. In addition, the GI50 in the assay with cancer cell lines fell in the range of 0.1 to 0.4 µM.

Turning to `O=C(Cc1cccnc1)Nc1ccc(CCCCc2nnc(NC(=O)Cc3cccc(OC(F)(F)F)c3)s2)cn1` [Example-11, 2-(Pyridin-3-yl)-N-(5-(4-(5-(2-(3-(trifluoromethoxy)phenyl)acetamido)-1,3,4-thiadiazol-2-yl)butyl)pyridin-2-yl)acetamide], the inhibition at 0.1 µM in assay [1] (0.1 μM, mice brain homogenate) is 75 to 100%. The inhibition at 1 µM in assay [1] (1 μM, mice brain homogenate) fell in the range of 75 to 100%. In the assay on cancer cell lines, this compound returned a GI50 of under 0.1 µM.

Take `N#Cc1cccc(CC(=O)Nc2nnc(CCCCc3ccc(NC(=O)Cc4cccc(OC(F)(F)F)c4)nc3)s2)c1` [Example-17, 2-(3-Cyanophenyl)-N-(5-(4-(6-(2-(3-(trifluoromethoxy)phenyl)acetamido)pyridin-3-yl)butyl)-1,3,4-thiadiazol-2-yl)acetamide]: the inhibition at 0.1 µM in assay [1] (0.1 μM, mice brain homogenate) was in the range of 25 to 50%. The inhibition at 1 µM in assay [1] (1 μM, mice brain homogenate) lay in the range of 75 to 100%. In the assay on cancer cell lines, this compound showed a GI50 of 0.1 to 0.4 µM.

As to `O=C(Cc1cccc(OC(F)(F)F)c1)Nc1ccc(CCCCc2nnc(NC(=O)Cc3cccnc3)s2)c(F)n1` [Example-21, N-(6-Fluoro-5-(4-(5-(2-(pyridin-3-yl)acetamido)-1,3,4-thiadiazol-2-yl)butyl)pyridin-2-yl)-2-(3-(trifluoromethoxy)phenyl)acetamide], the inhibition at 0.1 µM in assay [1] (0.1 μM, mice brain homogenate) is 50 to 75%. In assay [1] (1 μM, mice brain homogenate), the inhibition at 1 µM lay in the range of 75 to 100%. Further, in the assay with cancer cell lines, the GI50 is under 0.1 µM.

On to `CCC(Cl)C(=O)Nc1nnc(CCCCc2ccc(NC(=O)Cc3cccc(OC(F)(F)F)c3)nc2)s1` (stereo not drawn) [Example-24, 2-Chloro-N-(5-(4-(6-(2-(3-(trifluoromethoxy)phenyl)acetamido)pyridin-3-yl)butyl)-1,3,4-thiadiazol-2-yl)butanamide], for which the inhibition at 0.1 µM in assay [1] (0.1 μM, mice brain homogenate) was under 25%. The inhibition at 1 µM in assay [1] (1 μM, mice brain homogenate) was under 25%. The GI50 in the assay on cancer cell lines was in the range of 0.4 to 1 µM.

With `O=C(Cc1cccnc1)Nc1ccc(CC2CC(c3nnc(NC(=O)Cc4cccc(OC(F)(F)F)c4)s3)C2)cn1` (stereo not drawn) [Example-109, 2-(Pyridin-3-yl)-N-(5-((3-(5-(2-(3-(trifluoromethoxy)phenyl)acetamido)-1,3,4-thiadiazol-2-yl)cyclobutyl)methyl)pyridin-2-yl)acetamide], the inhibition at 0.1 µM in assay [1] (0.1 μM, mice brain homogenate) was 50 to 75%. For the same compound, the inhibition at 1 µM in assay [1] (1 μM, mice brain homogenate) was 75 to 100%. The same compound returned a GI50 in the assay on cancer cell lines of under 0.1 µM.

On to `O=C(Cc1cccc(OC(F)(F)F)c1)Nc1ccc(CCCCc2nnc(NC(=O)Cc3ccccn3)s2)c(F)n1` [Example-29, N-(6-fluoro-5-(4-(5-(2-(pyridin-2-yl)acetamido)-1,3,4-thiadiazol-2-yl)butyl)pyridin-2-yl)-2-(3-(trifluoromethoxy)phenyl)acetamide], for which the inhibition at 0.1 µM in assay [1] (0.1 μM, mice brain homogenate) lay in the range of 50 to 75%. Further, the inhibition at 1 µM in assay [1] (1 μM, mice brain homogenate) was 75 to 100%. In the assay with cancer cell lines, this compound registered a GI50 of 1 to 5 µM.

`CS(=O)(=O)Nc1ccc(CC(=O)Nc2nnc(CCCCc3ccc(NC(=O)Cc4cccc(OC(F)(F)F)c4)nc3)s2)cc1` [Example-31, 2-(4-(Methylsulfonamido)phenyl)-N-(5-(4-(6-(2-(3-(trifluoromethoxy)phenyl)acetamido)pyridin-3-yl)butyl)-1,3,4-thiadiazol-2-yl)acetamide]: in assay [1] (0.1 μM, mice brain homogenate), the inhibition at 0.1 µM was in the range of 50 to 75%. The inhibition at 1 µM in assay [1] (1 μM, mice brain homogenate) was 75 to 100%. Further, the GI50 in the assay with cancer cell lines lay in the range of 5 to 10 µM.

Regarding `O=C(Cc1cccc(OC(F)(F)F)c1)Nc1ccc(CC2CC(c3nnc(NC(=O)Cc4cccnc4)s3)C2)cn1` (stereo not drawn) [Example-108, 2-(Pyridin-3-yl)-N-(5-(3-((6-(2-(3-(trifluoromethoxy)phenyl)acetamido)pyridin-3-yl)methyl)cyclobutyl)-1,3,4-thiadiazol-2-yl)acetamide], in assay [1] (0.1 μM, mice brain homogenate), the inhibition at 0.1 µM was in the range of 75 to 100%. Further, the inhibition at 1 µM in assay [1] (1 μM, mice brain homogenate) was 75 to 100%. Also, in the assay with cancer cell lines, the GI50 was in the range of 0.1 to 0.4 µM.

`O=C(Cc1cccc(OC(F)(F)F)c1)Nc1ccc(CCCCc2nnc(NC(=O)Cc3ccccn3)s2)cn1` [Example 3, 2-(Pyridin-2-yl)-N-(5-(4-(6-(2-(3-(trifluoromethoxy)phenyl)acetamido)pyridin-3-yl)butyl)-1,3,4-thiadiazol-2-yl)acetamide]: in assay [1], the inhibition at 0.1 µM lay in the range of 50 to 75% and the inhibition at 1 µM lay within 75 to 100%. Moreover, the GI50 with cancer cell lines was 0.4 to 1 µM.

For the compound `O=C(Cc1ccccn1)Nc1ccc(CCCCc2nnc(NC(=O)Cc3cccnc3)s2)c(F)n1` [Example-38, N-(6-fluoro-5-(4-(5-(2-(pyridin-3-yl)acetamido)-1,3,4-thiadiazol-2-yl)butyl)pyridin-2-yl)-2-(pyridin-2-yl)acetamide], the inhibition at 0.1 µM in assay [1] (0.1 μM, mice brain homogenate) lay in the range of 25 to 50%. Also, in assay [1] (1 μM, mice brain homogenate), the inhibition at 1 µM lay in the range of 75 to 100%. Also, the GI50 with cancer cell lines is under 0.1 µM.

As for `O=C(Cc1cccc(OC(F)(F)F)c1)Nc1ccc(CCCCc2nnc(NC(=O)Cc3cccc(OC(F)(F)F)c3)s2)cn1` [Example-16, 2-(3-(Trifluoromethoxy)phenyl)-N-(5-(4-(5-(2-(3-(trifluoromethoxy)phenyl)acetamido)-1,3,4-thiadiazol-2-yl)butyl)pyridin-2-yl)acetamide], the inhibition at 0.1 µM in assay [1] (0.1 μM, mice brain homogenate) was in the range of 25 to 50%. Moreover, the inhibition at 1 µM in assay [1] (1 μM, mice brain homogenate) was in the range of 50 to 75%. In the assay with cancer cell lines, this compound displayed a GI50 of under 0.1 µM.

Consider `O=C(Cc1cccc(OC(F)(F)F)c1)Nc1ccc(CC2CC(c3nnc(NC(=O)Cc4ccccn4)s3)C2)cn1` (stereo not drawn) [Example-107, 2-(Pyridin-2-yl)-N-(5-(3-((6-(2-(3-(trifluoromethoxy)phenyl)acetamido)pyridin-3-yl)methyl)cyclobutyl)-1,3,4-thiadiazol-2-yl)acetamide], for which, in assay [1] (0.1 μM, mice brain homogenate), the inhibition at 0.1 µM is 25 to 50%. Moreover, the inhibition at 1 µM in assay [1] (1 μM, mice brain homogenate) lay in the range of 50 to 75%. Also, the GI50 in the assay on cancer cell lines fell in the range of 0.4 to 1 µM.

For `O=C(Cc1cccc(OC(F)(F)F)c1)Nc1ccc(CCCCc2nnc(NC(=O)Cc3cnccn3)s2)cn1` [Example-28, 2-(Pyrazin-2-yl)-N-(5-(4-(6-(2-(3-(trifluoromethoxy)phenyl)acetamido)pyridin-3-yl)butyl)-1,3,4-thiadiazol-2-yl)acetamide], the inhibition at 0.1 µM in assay [1] (0.1 μM, mice brain homogenate) is 75 to 100%. Moreover, the inhibition at 1 µM in assay [1] (1 μM, mice brain homogenate) was 50 to 75%. Also, the 50% growth inhibitory concentration (GI50) with cancer cell lines was in the range of 1 to 5 µM.

`O=C(Cc1cccnc1)Nc1ccc(CCCCc2nnc(NC(=O)Cc3cccc(F)c3)s2)cn1` [Example-20, 2-(3-Fluorophenyl)-N-(5-(4-(6-(2-(pyridin-3-yl)acetamido)pyridin-3-yl)butyl)-1,3,4-thiadiazol-2-yl)acetamide]: the inhibition at 0.1 µM in assay [1] (0.1 μM, mice brain homogenate) lay within 75 to 100%. For the same compound, the inhibition at 1 µM in assay [1] (1 μM, mice brain homogenate) lay in the range of 75 to 100%. The compound also registered a GI50 with cancer cell lines of 0.4 to 1 µM.
